Source: patent US20260200943A1, “COMPOUNDS FOR TREATING CANCER” (Genesis Therapeutics, Inc., priority 2022, published 2026)

How the values were obtained:
Type in all cases: biochemical
CDK2/CyclinA2 = target: T1, CDK2/CyclinA2 (Homo sapiens, UniProt P24941); experiment: CDK2/CyclinA2 ChEF Assay (Table A); settings: for Ki: 10xKm, read-out: CDK2/CCNA2 ChEF 10xKm Ki: Average Ki
T1 construct: Wild-type, full length CDK2 in complex with wildtype, full length CyclinA2: Carna Cat #04-103; purchased Carna 04-103
Method: 500 nL of 50× compound in 100% DMSO is added to a 384-well low volume, white assay plate. 19.5 μL of 1.3×CDK2/CyclinA2 (Wild-type, full length CDK2 in complex with wildtype, full length CyclinA2: Carna Cat #04-103 diluted in assay buffer (50 mM Hepes, 0.01% Brij-35, 10 mM MgCl2, 0.5 mM EGTA, 1% Glycerol, and 1.2 mM DTT) is added to the plates on top of the compound and pre-incubated for 30 minutes at room temperature. Following the incubation, 5 μL of 5×Sox-chromophore (CSox) labeled peptide substrate (AQT0255, AssayQuant) & ATP diluted in assay buffer is added to the plate to initiate the reaction. The assay is incubated at room temperature for 45 min after initiation. The CSox peptide substrate is phosphorylated by CDK2/A2 upon ATP hydrolysis.
(§1) The fluorescent intensity measurement of the assay plate for all assays described above is read on a microplate reader once the assay is initiated and again at the completion of the assay. Phosphorylation of the CSox-based peptide substrate sensor results in an immediate increase in fluorescence. These raw fluorescence intensity values are normalized to calculate percent inhibition, which are fit to a four-parameter logistic curve and IC50 values are calculated. IC50 values are converted to Ki using substrate, KM^app values, and the Cheng-Prusoff equation.

CDK1/CyclinB1 [1] = target: T2, CDK1/CyclinB1 (Homo sapiens, UniProt P06493); experiment: CDK1/CyclinB1 ChEF Assay (Table A); settings: read-out: CDK1/CCNB1 ChEF Ki: Average Ki;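 note: Ki reported in nM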
T2 construct: Wild-type, full length CDK1 in complex with wildtype, full length CyclinB1: Carna Cat #04-102; purchased Carna 04-102
T2 sequence (P06493 whole entry): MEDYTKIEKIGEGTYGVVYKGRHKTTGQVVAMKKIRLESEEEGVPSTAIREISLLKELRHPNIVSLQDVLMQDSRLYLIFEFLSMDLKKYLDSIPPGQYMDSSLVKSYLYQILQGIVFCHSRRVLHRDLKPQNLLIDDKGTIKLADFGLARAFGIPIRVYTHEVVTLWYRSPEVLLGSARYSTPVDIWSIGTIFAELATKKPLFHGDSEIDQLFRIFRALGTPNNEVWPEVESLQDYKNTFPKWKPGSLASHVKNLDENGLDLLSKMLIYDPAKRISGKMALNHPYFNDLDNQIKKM
T2 sequence (P14635 whole entry partner): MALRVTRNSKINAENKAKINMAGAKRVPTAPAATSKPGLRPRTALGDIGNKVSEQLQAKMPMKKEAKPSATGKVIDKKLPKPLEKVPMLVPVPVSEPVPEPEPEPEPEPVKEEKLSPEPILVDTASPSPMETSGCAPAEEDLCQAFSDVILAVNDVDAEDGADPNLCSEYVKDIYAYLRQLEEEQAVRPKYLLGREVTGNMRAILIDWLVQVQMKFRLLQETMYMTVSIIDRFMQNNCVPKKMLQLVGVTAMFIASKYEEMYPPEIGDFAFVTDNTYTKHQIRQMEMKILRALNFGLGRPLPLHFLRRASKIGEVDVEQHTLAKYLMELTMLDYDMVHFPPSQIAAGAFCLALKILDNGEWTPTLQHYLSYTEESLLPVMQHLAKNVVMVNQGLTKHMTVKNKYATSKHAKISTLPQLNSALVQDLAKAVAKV
Method: 500 nL of 50× compound in 100% DMSO is added to a 384-well low volume, white assay plate. 19.5 μL of 1.3×CDK1/CyclinB1 (Wild-type, full length CDK1 in complex with wildtype, full length CyclinB1: Carna Cat #04-102) diluted in assay buffer (50 mM Hepes, 0.01% Brij-35, 10 mM MgCl2, 0.5 mM EGTA, 1% Glycerol, and 1.2 mM DTT) is added to the plates on top of the compound and pre-incubated for 30 minutes at room temperature. Following the incubation, 5 μL of 5×Sox-chromophore (CSox) labeled peptide substrate (AQT0297, AssayQuant) & ATP diluted in assay buffer is added to the plate to initiate the reaction. The assay is incubated at room temperature for 30 min after initiation. The CSox peptide substrate is phosphorylated by CDK1/B1 upon ATP hydrolysis.
as §1

CDK1/CyclinB1 [2] = target: T2, CDK1/CyclinB1; experiment: CDK1/Cyclin B1 Mobility Shift Assay (Caliper, Table B); settings: read-out: CDK1/CCNB1 Caliper Ki: Average Ki
Method: 10 nL of 2000× compound in 100% DMSO is added to a 384-well polypropylene assay plate. 15 μL of 1.3×CDK1/B1 and 1.3× fluorescent substrate (Wild-type, full length CDK1 in complex with wildtype, full length CyclinB1: Carna Cat #04-102 and FL-Peptide 29: PerkinElmer Cat #760429) diluted in kinase buffer (50 mM Hepes, 0.01% Brij-35, 10 mM MgCl2, 1 mM EGTA, 0.05% BSA, and 2 mM DTT) is added to the plates on top of the compound, mixed, and pre-incubated for 30 minutes at room temperature. The fluorescently labeled peptide substrate is phosphorylated by CDK1/B1 upon ATP hydrolysis. Following the incubation, 5 μL of 4×ATP diluted in kinase buffer is added to the plate to initiate the reaction. Following the 30-minute incubation, the reaction is stopped by adding 75 μL of stopping buffer containing 0.5 M EDTA.
The assay plate is then read on a Lab Chip EZ Reader which separates the fluorescently labeled substrate and product peptides through a mobility difference. The phosphorylation of the substrate imparts a negative charge, which allows differences in separation as both are pulled through the microfluidic chip. The ratio of substrate and product values are used to generate percent conversion. These raw percent conversion values are normalized to calculate percent inhibition, which are fit to a four-parameter logistic curve and IC50 values are calculated. IC50 values are converted to Ki using substrate, Kmapp values, and the Cheng-Prusoff equation.

CDK9/CyclinT1 = CDK9/CyclinT1 (Homo sapiens, UniProt P50750); experiment: CDK9/CyclinT1 ChEF Assay (Table A); parameters: Wild-type, full length CDK9 in complex with wildtype, full length CyclinT1: Invitrogen Cat #PV4131; purchased Invitrogen PV4131; settings: 10xKm, read-out: CDK9/CCNT1 ChEF 10xKm Ki: Average Ki
Chain of CDK9/CyclinT1 (P50750 whole entry): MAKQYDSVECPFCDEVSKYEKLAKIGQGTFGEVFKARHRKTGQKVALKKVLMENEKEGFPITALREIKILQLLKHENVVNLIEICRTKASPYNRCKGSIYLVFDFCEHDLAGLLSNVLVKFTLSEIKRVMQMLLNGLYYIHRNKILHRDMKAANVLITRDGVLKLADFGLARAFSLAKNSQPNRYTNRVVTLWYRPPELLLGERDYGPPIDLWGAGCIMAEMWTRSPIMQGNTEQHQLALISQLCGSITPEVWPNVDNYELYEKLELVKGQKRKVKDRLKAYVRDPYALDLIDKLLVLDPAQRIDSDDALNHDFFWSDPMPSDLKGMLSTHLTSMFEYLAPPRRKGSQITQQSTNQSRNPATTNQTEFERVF
Chain of CDK9/CyclinT1 (O60563 whole entry partner): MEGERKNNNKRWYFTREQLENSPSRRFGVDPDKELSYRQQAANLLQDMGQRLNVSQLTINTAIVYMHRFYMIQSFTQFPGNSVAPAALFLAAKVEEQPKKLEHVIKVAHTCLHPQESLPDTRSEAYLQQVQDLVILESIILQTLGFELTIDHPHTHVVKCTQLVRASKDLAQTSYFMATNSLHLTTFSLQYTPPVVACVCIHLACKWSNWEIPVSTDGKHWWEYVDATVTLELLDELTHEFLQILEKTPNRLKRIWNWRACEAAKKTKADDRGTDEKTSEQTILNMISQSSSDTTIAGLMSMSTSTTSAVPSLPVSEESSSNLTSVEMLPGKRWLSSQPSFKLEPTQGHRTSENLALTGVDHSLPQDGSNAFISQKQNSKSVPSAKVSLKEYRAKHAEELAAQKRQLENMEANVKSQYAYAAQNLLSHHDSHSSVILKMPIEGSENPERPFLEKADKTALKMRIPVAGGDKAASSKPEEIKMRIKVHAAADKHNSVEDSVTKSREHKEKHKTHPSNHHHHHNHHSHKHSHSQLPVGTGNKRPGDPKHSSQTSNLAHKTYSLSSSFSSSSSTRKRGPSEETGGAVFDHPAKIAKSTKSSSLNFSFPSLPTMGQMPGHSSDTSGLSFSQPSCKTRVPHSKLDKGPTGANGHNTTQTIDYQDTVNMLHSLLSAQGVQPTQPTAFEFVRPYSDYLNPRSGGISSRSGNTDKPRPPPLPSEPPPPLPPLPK
Method: 500 nL of 50× compound in 100% DMSO is added to a 384-well low volume, white assay plate. 19.5 μL of 1.3×CDK9/CyclinT1 (Wild-type, full length CDK9 in complex with wildtype, full length CyclinT1: Invitrogen Cat #PV4131) diluted in assay buffer (50 mM Hepes, 0.01% Brij-35, 10 mM MgCl2, 0.5 mM EGTA, 1% Glycerol, and 1.2 mM DTT) is added to the plates on top of the compound and pre-incubated for 30 minutes at room temperature. Following the incubation, 5 μL of 5×Sox-chromophore (CSox) labeled peptide substrate (AQT0449, AssayQuant) & ATP diluted in assay buffer is added to the plate to initiate the reaction. The assay is incubated at room temperature for 120 min after initiation. The CSox peptide substrate is phosphorylated by CDK9/T1 upon ATP hydrolysis.
as §1

Structure (SMILES)	Ki (CDK2/CyclinA2)	CDK2/CCNA2 ChEF 10xKm Ki: CDK2/A2 Selectivity over CDK9/T1 (CDK2/CyclinA2)	Ki (CDK1/CyclinB1 [1])	Ki (CDK1/CyclinB1 [2])	Ki (CDK9/CyclinT1)
O=C1NCCCn2cc(cn2)S(=O)(=O)N2CCC(CC2)Nc2cc([nH]n2)[C@H]2CC[C@H](C2)O1 [Compound 95, (1^1S, 1^3R,2^4Z,6^4E)-2^1H,6^1H-12-oxa-5-thia-3,10-diaza-4(4,1)-piperidina-2(5,3),6(4,1)-dipyrazola-1(1,3)-cyclopentanacyclododecaphan-11-one 5,5-dioxide]	≥ 100 nM	C (C<5)	≥ 100 nM	≥ 100 nM	≥ 100 nM
CN1CCNC(=O)O[C@@H]2CC[C@@H](C2)c2cc(n[nH]2)Nc2ccc(cc2F)S(=O)(=O)NCC1 [Compound 100, (1^1S, 1^3R,Z)-4^2-fluoro-9-methyl-2^1H-14-oxa-5-thia-3,6,9,12-tetraaza-2(5,3)-pyrazola-4(1,4)-benzena-1(1,3)-cyclopentanacyclotetradecaphan-13-one 5,5-dioxide]	1 to 25 nM	A (A>10)	25 to 100 nM	≥ 100 nM	≥ 100 nM
CC1(C)CCCNS(=O)(=O)c2ccc(c(F)c2)Nc2cc([nH]n2)[C@H]2CC[C@H](C2)OC(=O)N1 [Compound 101, (1^1S,1^3R,Z)-4^2-fluoro-10,10-dimethyl-2^1H-13-oxa-5-thia-3,6,11-triaza-2(5,3)-pyrazola-4(1,4)-benzena-1(1,3)-cyclopentanacyclotridecaphan-12-one 5,5-dioxide]	1 to 25 nM	A (A>10)	25 to 100 nM	≥ 100 nM	25 to 100 nM
O=C1NCCCNS(=O)(=O)c2ccc(c(F)c2)Nc2cc([nH]n2)[C@H]2CC[C@H](C2)O1 [Compound 98, (1^1S, 1^3R,Z)-4^2-fluoro-2^1H-12-oxa-5-thia-3,6, 10-triaza-2(5,3)-pyrazola-4(1,4)-benzena-1(1,3)-cyclopentanacyclododecaphan-11-one 5,5-dioxide]	25 to 100 nM	B (5≤B<10)	≥ 100 nM	≥ 100 nM	25 to 100 nM
O=C1NCCOCCNS(=O)(=O)c2ccc(c(F)c2)Nc2cc([nH]n2)[C@H]2CC[C@H](C2)O1 [Compound 89, (1^1S,1^3R,Z)-4^2-Fluoro-2^1H-9,14-dioxa-5-thia-3,6,12-triaza-2(5,3)-pyrazola-4(1,4)-benzena-1(1,3)-cyclopentanacyclotetradecaphan-13-one 5,5-dioxide]	1 to 25 nM	A (A>10)	1 to 25 nM	1 to 25 nM	≥ 100 nM

Second part, the compound after the results:

Ki (CDK2/CyclinA2)	CDK2/CCNA2 ChEF 10xKm Ki: CDK2/A2 Selectivity over CDK9/T1 (CDK2/CyclinA2)	Ki (CDK1/CyclinB1 [1])	Ki (CDK1/CyclinB1 [2])	Ki (CDK9/CyclinT1)	Structure (SMILES)
1 to 25 nM	A (A>10)	1 to 25 nM	25 to 100 nM	≥ 100 nM	O=C1NCCCCCNS(=O)(=O)c2ccc(c(F)c2)Nc2cc([nH]n2)[C@H]2CC[C@H](C2)O1 [Compound 90, (1^1S,1^3R,Z)-4^2-fluoro-2^1H-14-oxa-5-thia-3,6,12-triaza-2(5,3)-pyrazola-4(1,4)-benzena-1(1,3)-cyclopentanacyclotetradecaphan-13-one 5,5-dioxide]
1 to 25 nM	A (A>10)	25 to 100 nM	≥ 100 nM	25 to 100 nM	O=C1NCCCCCn2cc(cn2)S(=O)(=O)N2CCC(CC2)Nc2cc([nH]n2)[C@H]2CC[C@H](C2)O1 [Compound 96, (1^1S,1^3R,2^4Z,6^4E)-2^1H,6^1H-14-oxa-5-thia-3,12-diaza-4(4,1)-piperidina-2(5,3),6(4,1)-dipyrazola-1(1,3)-cyclopentanacyclotetradecaphan-13-one 5,5-dioxide]
< 1 nM	A (A>10)	1 to 25 nM	25 to 100 nM	≥ 100 nM	O=C1NCC=CCNS(=O)(=O)c2ccc(c(F)c2)Nc2cc([nH]n2)[C@H]2CC[C@H](C2)O1 [Compound 102, (1^1S,1^3R,2^4Z)-4^2-fluoro-2^1H-13-oxa-5-thia-3,6,11-triaza-2(5,3)-pyrazola-4(1,4)-benzena-1(1,3)-cyclopentanacyclotridecaphan-8-en-12-one 5,5-dioxide]
< 1 nM	A (A>10)	< 1 nM	< 1 nM	≥ 100 nM	O=C1NCCCCCCCNS(=O)(=O)c2ccc(c(F)c2)Nc2cc([nH]n2)[C@H]2CC[C@H](C2)O1 [Compound 92]
< 1 nM	A (A>10)	1 to 25 nM	1 to 25 nM	≥ 100 nM	O=C1NCCCCCCNS(=O)(=O)c2ccc(c(F)c2)Nc2cc([nH]n2)[C@H]2CC[C@H](C2)O1 [Compound 91, (1^1S,1^3R,Z)-4^2-fluoro-2^1H-15-oxa-5-thia-3,6,13-triaza-2(5,3)-pyrazola-4(1,4)-benzena-1(1,3)-cyclopentanacyclopentadecaphan-14-one 5,5-dioxide]
< 1 nM	A (A>10)	1 to 25 nM	1 to 25 nM	≥ 100 nM	O=C1NCCCCCCn2cc(cn2)S(=O)(=O)N2CCC(CC2)Nc2cc([nH]n2)[C@H]2CC[C@H](C2)O1 [Compound 97, (1^1S,1^3R,2^4Z,6^4E)-2^1H,6^1H-15-oxa-5-thia-3,13-diaza-4(4,1)-piperidina-2(5,3),6(4,1)-dipyrazola-1(1,3)-cyclopentanacyclopentadecaphan-14-one 5,5-dioxide]
< 1 nM	A (A>10)	1 to 25 nM	1 to 25 nM	≥ 100 nM	O=C1NCCCCNS(=O)(=O)c2ccc(c(F)c2)Nc2cc([nH]n2)[C@H]2CC[C@H](C2)O1 [Compound 99, (1^1S, 1^3R,Z)-4^2-fluoro-2^1H-13-oxa-5-thia-3,6,11-triaza-2(5,3)-pyrazola-4(1,4)-benzena-1(1,3)-cyclopentanacyclotridecaphan-12-one 5,5-dioxide]
